Assay results: patent publication US20030138476A1, “Use of glutamate and/or a glutamate precursor for the preparation of a nutritional or pharmaceutical preparation for the treatment or prevention of hyperpermeability or undesired permeability of the intestinal wall” (priority 2000, published 2003)

Assays:
HT-29CL.19A cells [1] = experiment: Transepithelial (apical to basolateral) HRP permeability of HT-29CL.19A monolayers, hyperpermeability induced by PDB; format: cell-based, human; details: PDB 1 mmol/l
Source text: The macromolecular permeability of the intestinal epithelium is controlled by the passage through intercellular tight junctions in the paracellular channels. Opening of these tight junctions is controlled by the epithelial cells in response to various intercellular mediators, such as Ca, cyclic AMP, G proteins and protein kinase c. The human intestinal cell line HT-29CL.19A is becoming increasingly more important for studying this paracellular permeability in vitro. See also the abovementioned article in J. Parenteral Enteral Nutrition, that is incorporated herein by reference.
For the present examples, confluent monolayers of HT-29CL19A cells were cultured on permeability filters. […] The transepithelial permeability from apical to basolateral was determined for horseradish peroxidase (HRP) with the aid of an enzyme assay. Phorbol 12,13-dibutyrate (PDB, 1 mmol/l) was used to increase the permeability. […] All agents were added to the apical compartment.

HT-29CL.19A cells [2] = details: Kouznetsova et al. J. Parenteral Enteral Nutrition 23 (1999) 136-139; cited from earlier work
[3] = cited from earlier work

SMILES: N[C@H](C(=O)O)[C@@H]1CC(Cl)=NO1 [Acivicin, acivicin]
- effect of acivicin on the reduction in PDB-induced hyperpermeability in the presence of glutamate (HT-29CL.19A cells [1]; in the presence of glutamate): This effect did not occur
- effect of acivicin on the glutamine-mediated reduction in PDB-induced hyperpermeability (HT-29CL.19A cells [1]; in the presence of glutamine): prevented the glutamine-mediated reduction in the hyperpermeability

SMILES: N[C@@H](CCC(=O)O)C(=O)O [Glutamate, glutamate]
- effect on PDB-induced hyperpermeability (HRP flux) (HT-29CL.19A cells [1]; glutamate 0.6 mmol/l, apical, p<0.001): had the same effect
- effect on PDB-induced hyperpermeability (HRP flux) (HT-29CL.19A cells [1]; glutamate 0.6 mmol/l, apical, p<0.001, listed as glutamate): reduces the macromolecular hyperpermeability

SMILES: NC(=O)CC[C@H](N)C(=O)O [Glutamine, glutamine]
- effect on PDB-induced hyperpermeability (HRP flux) (HT-29CL.19A cells [1]; glutamine added to apical compartment): reduces this hyperpermeability appreciably
- effect on macromolecular hyperpermeability of intestinal cells induced by phorbol 12,13-dibutyrate (HT-29CL.19A cells [2]): able to lower the macromolecular hyperpermeability
- solubility [3]: poor solubility

SMILES: CCCC(=O)O[C@@H]1[C@@H](C)[C@@]2(O)[C@@H](C=C(CO)C[C@]3(O)C(=O)C(C)=C[C@@H]23)[C@@H]2C(C)(C)[C@]12OC(=O)CCC [PDB, Phorbol 12,13-dibutyrate]
- increase of HRP flux compared with the control (HT-29CL.19A cells [1]; apical, after 150-279 min stimulation, p<0.001): 3 fold
